Columns and labels:
[1] = target: T1, bacterial (E.coli) tRNA guanine transglycosylase (TGT) (Escherichia coli, UniProt P0A847); test: TGT-catalyzed incorporation of PreQ1 analogs into RNA oligonucleotide hairpins (LC / HRMS); type: biochemical
T1 construct: His6 (C); made in house; host or cells: E. coli BL21
Description: General TGT reaction with RNA oligonucleotide hairpins TGT reaction conditions were adapted from a previously reported literature procedure.^1 An eppendorf tube containing 10 μM RNA oligonucleotide, 100 μM PreQ1 analog, and 10 μM TGT enzyme were prepared in a final volume of 50 μL of TGT reaction buffer. The reactions were incubated at 37° C. for a minimum of 2 hours. The reactions were halted by chilling samples to 4° C. or freezing at −80° C. until purified or analyzed.
Liquid chromatography and mass spectroscopy analysis of preQ1 modified RNA hairpins. Samples were first prepared according to the general procedure. Samples were allowed to react for 6 hours and frozen at −80° C. until analyzed (PreQ1-Biotin required 24 hours for completion). Samples were diluted 1:2 with milli-Q water and injected onto a clarity Oligo-MS column (Phenomenex, Torrance, Calif.) and analyzed by HPLC according to the following gradient: (A=Milli-Q water containing 20% hexafluoroisopropanol (HFIP) and 0.1% TEA, B=methanol), Initial conditions 95% A, 5% B, hold 2 min then a linear gradient starting at 2 min and ending at 10 min with 45% A, 55% B. Samples were monitored at 260 nm as well as either 505 nm or 700 nm as appropriate when fluorophore PreQ1 analogs were employed. HRMS samples were collected in negative ion mode and analyzed in a similar manner by combining the mass spectrum traces across the peak of interest. Raw mass spectrum were deconvoluted using MagTran software package v.

[2] = target: T2, streptavidin M-280 DYNABEADS (Streptomyces avidinii, UniProt P22629); test: DYNABEADS streptavidin pull-down of PreQ1-Biotin modified transcripts; type: binding; details: mCherry-TAG vs mCherry-TAGΔC after TGT labeling (FIGS. 3C and 10)
T2 construct: purchased Life Technologies M280
Description: DYNABEADS® Streptavidin pull-down of PreQ1-Biotin modified transcripts. mCherry-TAG and mCherry-TAGΔC transcripts was incubated in a mixture of 1 μM RNA, 100 μM preQ1-Biotin, and 1 μM TGT (omitted in control samples) in TGT reaction buffer at 37° C. for 4 hours. 1 unit of RNAseIn (Promega, Madison, Wis.) was added to the reaction to prevent transcript degradation. Samples were drop dialyzed through 0.02 μm MF-Millipore membrane filter (Millipore, Billerica, Mass.) using 25 mL Milli-Q water and subsequently ethanol precipitated by addition of 10% volume of 3M sodium acetate and 2.5 volumes 95% ethanol and incubation at […] overnight. After centrifugation at 4° C. (16,100 g, 30 min), the resulting RNA pellet was resuspended in water, and the concentration of RNA was quantified.
Streptavidin M280 DYNABEADS® (Life Technologies, Carlsbad, Calif.) were washed according to manufacturer's instructions for RNA applications using binding and washing (B&W) buffer. Beads were blocked in B&W buffer with yeast tRNA (0.1 mg/100 uL of beads). Following the blocking step, beads were washed twice with B&W buffer. Pull down was then performed by incubation of 1 μg of prepared RNA with 10 uL of washed beads in B&W buffer at room temperature for 30 minutes with constant rotation. The beads were then washed three times with B&W buffer. […] Samples were then analyzed by 4% denaturing PAGE.

streptavidin = target: T3, streptavidin (Streptomyces avidinii, UniProt P22629); test: Streptavidin gel shift of RNA hairpins modified with PreQ1-Biotin; type: binding; details: ECY-A1 vs ECY-A1ΔC, with and without TGT; 15% denaturing PAGE (FIG. 2C)
T3 construct: purchased Life Technologies
Description: Streptavidin gel shift of RNA hairpins. ECY-A1 RNA and ECY-A1ΔC was incubated in a mixture of 10 μM RNA, 100 μM preQ1-Biotin, and 1 μM TGT (omitted in control samples) in TGT reaction buffer at 37° C. for 24 hours. After the reactions were complete, the RNA was precipitated by addition of 10% volume of 3M sodium acetate and 2.5 volumes 95% ethanol and incubation at −20° C. overnight. After centrifugation at 4° C. (16,100 g, 30 min), the resulting RNA pellet was resuspended in water, and the concentration of RNA was quantified. The prepared RNA was then incubated in the presence of streptavidin (Life Technologies, Carlsbad, Calif.) at 37° C. for 1 hour in a mixture containing the following: 10 mM Tris (pH 8.1), 2.5 μM RNA, and 50 μM streptavidin. 1X RNA loading dye (NEB, Ipswitch, Mass.) was added to the sample (without heat denaturation) and samples were analyzed by 15% denaturing PAGE.

[3] = target: T1, bacterial (E.coli) tRNA guanine transglycosylase (TGT); type: biochemical; details: TGT present; 4% denaturing PAGE (FIG. 3A, FIG. 7)
Description: General labeling reaction procedure for fluorescence spectra and gel analysis. A 25 μL reaction was setup in a small eppendorf tube containing 100 nM RNA transcript, 50 μM PreQ1 analog, and 1μM TGT in TGT reaction buffer. 1 unit of RNaseln (Promega, Madison, Wis.) was added to each reaction to prevent degradation of the transcript. The reaction was allowed to proceed for 4 hours, after which the sample was cooled to 4° C. and either used directly or stored at −80° C. until further analyzed.
Gel Analysis of TGT reactions with PreQ1 analogs. […] After the reactions were complete, the RNA was precipitated by addition of 10% volume of 3M sodium acetate and 2.5 volumes 95% ethanol. The samples were then precipitated at −80° C. for 2 hours after which they were centrifuged at 16,100 g for 30 minutes at 4° C. The ethanol was carefully pipetted away and the RNA pellet was allowed to air dry for 10 minutes on the bench. The pellet was resuspended in 10 μL of 1X RNA loading dye (NEB, Ipswitch, Mass.), heated to 95° C. for 2 minutes, placed on ice for 20 minutes, and subsequently loaded into a freshly poured denaturing 4% polyacrylamide gel (4% polyacrylamide in 1X TBE buffer with 8% urea) and run at 120 V for approximately 2 hours until the xylene cyanol blue dye had reached the bottom of the gel. […]

[4] = system: mCherry-TAG RNA endogenously expressed in CHO cells; test: Fixed cell labeling of endogenously expressed mCherry-TAG transcript; type: cell-based, Chinese hamster; details: 50 μM PreQ1-Cy7, with TGT and mCherry-TAG plasmid vs controls without (FIG. 4)
Description: Fixed Cell Labeling of Endogenously Expressed mCherry-ECY-A1 Transcript. Chinese Hamster Ovary (CHO) cells (CRL-9606, ATCC, Manassas, Va.) were cultured in Ham's F-12K media (Life Technologies, Carlsbad, Calif.) and kept under 20 passages from the ATCC standard line. CHO cells were plated at an initial density of 10,000 cells per well in a Nunc Lab-Tek 8 well chamber slide (Thermo Scientific, Waltham, Mass.). Cells were allowed to adhere overnight and washed with Opti-MEM media (Life Technologies, Carlsbad, Calif.) and subsequently transfected with […] of mCherry-TAG plasmid per well with 1.5 μL of Lipofectamine® 2000 (Life Technologies, Carlsbad, Calif.) in Opti-MEM as per manufacture's protocol. Control wells lacking transfection were treated and washed with Opti-MEM in the absence of DNA and lipofectamine®. After overnight transfection, the cells were washed twice with PBS (200 μL each) and fixed with 100 μL of a 3.7% paraformaldehyde in PBS solution for 10 minutes at room temperature. Cells were then permeabilized by treatment with 100 μL of 0.1% Triton X-100 in PBS for 20 minutes at room temperature and washed 2×200 μL with fresh PBS. Cells were then treated for four hours at 37° C. with 100 μL of TGT reaction buffer containing 50 μM PreQ1-Cy7 either with or without 10 μM TGT enzyme added. […] Images were subsequently analyzed and processed using ImageJ (NIH, rsbweb.nih.gov).

[5] = target: T1, bacterial (E.coli) tRNA guanine transglycosylase (TGT); test: Fluorescence emission spectra of PreQ1-TO probe turn-on with ECY-A1 hairpin; type: biochemical; details: RNA hairpin ECY-A1; normalized to PreQ1-TO in the absence of RNA and TGT (FIG. 2B)
Description: Fluorescence emission spectra of PreQ1-TO probe turn-on with ECY-A1 hairpin. Samples of ECY-A1, ECY-A1ΔC, and ECY-X1 were first prepared in a similar fashion to the general protocol except only 20 μM PreQ1-TO was employed to avoid non-specific binding to the hairpins. Samples were allowed to react for 2 hours, verified to be at completion by HPLC, and diluted 30-fold into TGT reaction buffer. Spectra were then collected on a Fluoromax-P spectrophotometer by excitation at 501 nm and scanning emission from 510 to 600 nm with excitation and emission slit width at 5 nm and an integration time of 1 s. All spectra were background subtracted from TGT reaction buffer and Normalized against the fluorescence intensity values of a sample containing an analogous concentration of PreQ1-TO (0.667 μM) in TGT reaction buffer.

[6] = target: T1, bacterial (E.coli) tRNA guanine transglycosylase (TGT); test: Fluorescence emission spectra of PreQ1-TO probe turn-on with mCherry-TAG RNA; type: biochemical
Description: Fluorescence emission spectra of PreQ1-TO probe turn-on with mCherry-TAG RNA. Fluorescence emission spectra were collected in a similar fashion to that described previously for the short RNA hairpins. 25 μL reactions were setup with 10 μM TGT enzyme, 20 μM PreQ1-TO, and 100 nM transcript RNA and incubated at 37° C. for 2 hours. Samples were then diluted 30-fold and measured under the same conditions and parameters as that of the short hairpins.

T1 sequence (P0A847 whole entry, added parts left off): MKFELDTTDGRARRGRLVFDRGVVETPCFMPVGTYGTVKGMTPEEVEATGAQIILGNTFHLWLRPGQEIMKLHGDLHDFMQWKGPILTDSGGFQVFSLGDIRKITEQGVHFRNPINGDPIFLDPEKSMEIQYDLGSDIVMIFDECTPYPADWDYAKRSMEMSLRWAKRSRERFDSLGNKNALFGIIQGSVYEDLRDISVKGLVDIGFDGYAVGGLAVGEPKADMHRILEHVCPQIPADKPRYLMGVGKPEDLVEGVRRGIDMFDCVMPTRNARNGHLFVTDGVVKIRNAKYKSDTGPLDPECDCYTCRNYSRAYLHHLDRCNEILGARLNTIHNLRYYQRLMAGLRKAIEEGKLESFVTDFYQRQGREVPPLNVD
T2 sequence (P22629 25-183): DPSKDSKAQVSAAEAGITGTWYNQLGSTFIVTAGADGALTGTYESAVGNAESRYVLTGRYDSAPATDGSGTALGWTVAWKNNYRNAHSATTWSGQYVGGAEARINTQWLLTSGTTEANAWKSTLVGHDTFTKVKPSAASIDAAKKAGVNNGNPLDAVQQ
T3 sequence (P22629 25-183): as above

Nc1nc2[nH]cc(CNCCOCCOCCOCCNC(=O)CCCC[C@@H]3SC[C@@H]4NC(=O)N[C@@H]43)c2c(=O)[nH]1 [PreQ1-Biotin]
reaction time required for completion of TGT labeling of ECY-A1 ([1]; 37° C., other analogs 6 hour incubation): 24 h | RNA recovered in streptavidin pull-down [2]: single RNA band corresponding to transcript only when mCherry transcript contained the ECY-A 1 hairpin | streptavidin gel shift of ECY-A1 modified by TGT (streptavidin): biotin remains functional as an affinity tag

CN1/C(=C/C=C2C=C(/C=C/C3=[N+](CCCCCC(=O)NCCOCCOCCOCCNCc4c[nH]c5nc(N)[nH]c(=O)c45)c4ccccc4C3(C)C)CCC/2)C(C)(C)c2ccccc21.O=C[O-] [PreQ1-Cy7]
fluorescent labeling of mCherry-TAG transcript [3]: labeling of the transcript took place | staining of fixed, permeabilized CHO cells [4]: significantly greater staining of fixed cells

CN1/C(=C/c2cc[n+](CCCCCC(=O)NCCOCCOCCOCCNCc3c[nH]c4nc(N)[nH]c(=O)c34)c3ccccc23)Sc2ccccc21.O=C[O-] [PreQ1-TO]
increase in TO fluorescence intensity upon covalent incorporation [5]: ~40 fold | RNA substrate selectivity of incorporation ([1]; ECY-A1 compared with ECY-A1ΔC and ECY-X1 (FIG. 20B)): selectively incorporated into ECY-A1 | incorporation of PreQ1-TO into alternative RNA hairpins ([1]; RNA hairpins ECY-A1ΔC and ECY-X1, with TGT, by LC/MS): unable to detect incorporation | fluorescence intensity with in vitro transcribed mCherry-TAG RNA ([6]; TGT present vs absent (FIG. 3B)): significant increase in fluorescence intensity | fluorescence turn-on with mCherry-TAGΔC transcript ([6]; in the presence of enzyme): negligible fluorescence turn-on

Source: patent US11267842B2, “Enzymatic modification of nucleic acids” (The Regents of the University of California, priority 2015, dated 2022)
